From patent EP1171107B1, “USE OF A PHARMACEUTICAL COMPOSITION IN THE MANUFACTURE OF A MEDICAMENT FOR THE TREATMENT OF PATHOLOGICAL CONDITIONS OF THE EYE CAUSED BY BACTERIA, VIRUSES, FUNGI, YEASTS AND PROTOZOA” (Dr. GERHARD MANN chem.-pharm. Fabrik GmbH, priority 1999, dated 2000)

Legend:
Format in all cases: cell-based
S.epidermidis [1] = assay: Qualitative examination: enrichment of the inoculated test preparation in broth
Text: (§1) Escherichia (E.coli) Staphylococcus (S.aureus) Streptococcus (Sc.) Pneumoniae Pseudomonas (P.aeruginosa) Staphylococcus (S. epidermidis) Haemophilus (H. influenzae)
(§2) Die verschiedenen Testkeime wurde jeweils aus einem Lyophilisat in NaCl-Peptonpuffer homogenisiert und auf Caseinpepton-Sojymehlpepton. (Caso-) Agar (Fa. bioMérieux; Art. Nr. 43019) bez. Kochblut-Agar (Fa. bioMérieux; Art. Nr. 43109) subkultiviert. Die Teststämme wurden vor Versuchsbeginn durch Erstellen eines biochemischen Profils mittels ATB/Vitek-System (Fa. bioMérieux, Nürtingen) auf Reinheit und Identität überprüft.
(§3) Die verschiedenen Testsubstanzen a. bis j. wurden jeweils zu 5 ml in sterile Zentrifugenröhrchen abgefüllt und mit ca. 10^5 KBE^*/ml (* = koloniebildende Einheiten) der oben genannten Testkeime kontaminiert. Pro Substanz wurde für jeden Testkeim und jede zu prüfende Testzeit ein separater Ansatz angeimpft, d.h.10 Testsubstanzen zu jeweils 7 Testzeiten und 6 Testkeime (= insgesamt 502 Testansätze). […] Der Überstand wurde dekantiert und das Pellet in 5 ml NaCl Peptonpuffer aufgenommen und resuspendiert. Die Suspension wurde erneut 10 Minuten bei 3000 rpm abzentrifugiert und 5 ml NaCl-Peptonpuffer aufgenommen und mittels Vortex homogenisiert.
(§4) Jeweils 2 ml der Testansätze wurden in 20 ml Caso-Bouillon oder für H. influenzae, in Fildes-Medium der Firma Becton Dickinson, ARt. Nr. 0349-739, angereichert und ebenfalls maximal 4 Tage bei 33± 2°C bebrütet. Ein negatives Ergebnis der Anreicherung belegt die Elimination der inokulierten Keime.

Sc. pneumoniae [2] = assay: as above
Text: as §1, §2, §3, §4

S.aureus = assay: as above
Text: as §1, §2, §3, §4

E.coli [3] = assay: as above
Text: as §1, §2, §3, §4

S.epidermidis [4] = assay: Quantitative germ count (re-isolation, surface method) after inoculating the test preparation; conditions: Ausgangskeimzahl 2,1 x 10^5 KBE/ml
Text: as §1, §2
(§5) Die Ausgangskeimzahl wurde im Oberflächenverfahren mit Hilfe eines Spiralplaters (Fa. Meintrup, Lähden) ermittelt und ist im einzelnen den Tabellen 1-12 zu entnehmen.
(§6) Die verschiedenen Testsubstanzen a. bis j. wurden jeweils zu 5 ml in sterile Zentrifugenröhrchen abgefüllt und mit ca. 10^5 KBE^*/ml (* = koloniebildende Einheiten) der oben genannten Testkeime kontaminiert. Pro Substanz wurde für jeden Testkeim und jede zu prüfende Testzeit ein separater Ansatz angeimpft, d.h.10 Testsubstanzen zu jeweils 7 Testzeiten und 6 Testkeime (= insgesamt 502 Testansätze). Nach 2, 6, 8, 24, 32, 48 und 72 Stunden wurde dann der jeweilige Testansatz 10 Minuten bei 3000 rpm abzentrifugiert. Der Überstand wurde dekantiert und das Pellet in 5 ml NaCl Peptonpuffer aufgenommen und resuspendiert. Die Suspension wurde erneut 10 Minuten bei 3000 rpm abzentrifugiert und 5 ml NaCl-Peptonpuffer aufgenommen und mittels Vortex homogenisiert.
(§7) Die anschließende Keimzahlbestimmung erfolgte im Oberflächenverfahren durch Ausspiralisieren eines […] Aliquots auf Caso-Agar bzw. für H. influenzae auf Kochblut-Agar. Die Platten wurden bei 33±2°C für max. 4 Tage bebrütet. Die Nachweisgrenze des Verfahrens liegt bei 100 KBE/ml.

P.aeruginosa [5] = assay: as above; conditions: Ausgangskeimzahl 2,7 x 10^5 KBE/ml
Text: as §1, §2, §5, §6, §7

H.influenzae [6] = assay: as above; conditions: Ausgangskeimzahl 2,8 x 10^5 KBE/ml
Text: as §1, §2, §5, §3, §7

Sc. pneumoniae [7] = assay: as above; conditions: Ausgangskeimzahl 3,7 x 10^5 KBE/ml
Text: as §1, §2, §5, §3, §7

E.coli [8] = assay: as above; conditions: Ausgangskeimzahl 2,7 x 10^5 KBE/ml
Text: as §1, §2, §5, §3, §7

H.influenzae [9] = assay: Qualitative examination: enrichment of the inoculated test preparation in broth
Text: as §1, §2, §6, §4

P.aeruginosa [10] = assay: as above
Text: as §1, §2, §6, §4

## Benzalkoniumchlorid [Benzalkoniumchlorid 0,006 Gew.-%]
S.epidermidis [1]; 2 h after inoculation
  Ergebnis der Reisolierung qualitiativ (+/-) nach Anreicherung: -
S.epidermidis [1]; 4 h after inoculation
  Ergebnis der Reisolierung qualitiativ (+/-) nach Anreicherung: -
S.epidermidis [1]; 6 h after inoculation
  Ergebnis der Reisolierung qualitiativ (+/-) nach Anreicherung: -
S.epidermidis [1]; 8 h after inoculation
  Ergebnis der Reisolierung qualitiativ (+/-) nach Anreicherung: -
S.epidermidis [1]; 24 h after inoculation
  Ergebnis der Reisolierung qualitiativ (+/-) nach Anreicherung: -
S.epidermidis [1]; 32 h after inoculation
  Ergebnis der Reisolierung qualitiativ (+/-) nach Anreicherung: -
S.epidermidis [1]; 48 h after inoculation
  Ergebnis der Reisolierung qualitiativ (+/-) nach Anreicherung: -
S.epidermidis [1]; 72 h after inoculation
  Ergebnis der Reisolierung qualitiativ (+/-) nach Anreicherung: -
Sc. pneumoniae [2]; 2 h after inoculation
  Ergebnis der Reisolierung qualitiativ (+/-) nach Anreicherung: -
Sc. pneumoniae [2]; 4 h after inoculation
  Ergebnis der Reisolierung qualitiativ (+/-) nach Anreicherung: -
Sc. pneumoniae [2]; 6 h after inoculation
  Ergebnis der Reisolierung qualitiativ (+/-) nach Anreicherung: -
Sc. pneumoniae [2]; 8 h after inoculation
  Ergebnis der Reisolierung qualitiativ (+/-) nach Anreicherung: -
Sc. pneumoniae [2]; 24 h after inoculation
  Ergebnis der Reisolierung qualitiativ (+/-) nach Anreicherung: -
Sc. pneumoniae [2]; 32 h after inoculation
  Ergebnis der Reisolierung qualitiativ (+/-) nach Anreicherung: -
Sc. pneumoniae [2]; 48 h after inoculation
  Ergebnis der Reisolierung qualitiativ (+/-) nach Anreicherung: -
Sc. pneumoniae [2]; 72 h after inoculation
  Ergebnis der Reisolierung qualitiativ (+/-) nach Anreicherung: -
S.aureus; 2 h after inoculation
  Ergebnis der Reisolierung qualitiativ (+/-) nach Anreicherung: -
S.aureus; 4 h after inoculation
  Ergebnis der Reisolierung qualitiativ (+/-) nach Anreicherung: -
S.aureus; 6 h after inoculation
  Ergebnis der Reisolierung qualitiativ (+/-) nach Anreicherung: -
S.aureus; 8 h after inoculation
  Ergebnis der Reisolierung qualitiativ (+/-) nach Anreicherung: -
S.aureus; 24 h after inoculation
  Ergebnis der Reisolierung qualitiativ (+/-) nach Anreicherung: -
S.aureus; 32 h after inoculation
  Ergebnis der Reisolierung qualitiativ (+/-) nach Anreicherung: -
S.aureus; 48 h after inoculation
  Ergebnis der Reisolierung qualitiativ (+/-) nach Anreicherung: -
S.aureus; 72 h after inoculation
  Ergebnis der Reisolierung qualitiativ (+/-) nach Anreicherung: -
E.coli [3]; 2 h after inoculation
  Ergebnis der Reisolierung qualitiativ (+/-) nach Anreicherung: -
E.coli [3]; 4 h after inoculation
  Ergebnis der Reisolierung qualitiativ (+/-) nach Anreicherung: -
E.coli [3]; 6 h after inoculation
  Ergebnis der Reisolierung qualitiativ (+/-) nach Anreicherung: -
E.coli [3]; 8 h after inoculation
  Ergebnis der Reisolierung qualitiativ (+/-) nach Anreicherung: -
E.coli [3]; 24 h after inoculation
  Ergebnis der Reisolierung qualitiativ (+/-) nach Anreicherung: -
E.coli [3]; 32 h after inoculation
  Ergebnis der Reisolierung qualitiativ (+/-) nach Anreicherung: -
E.coli [3]; 48 h after inoculation
  Ergebnis der Reisolierung qualitiativ (+/-) nach Anreicherung: -
E.coli [3]; 72 h after inoculation
  Ergebnis der Reisolierung qualitiativ (+/-) nach Anreicherung: -
S.epidermidis [4]; 2 h after inoculation
  Ergebnis der Reisolierung (in KBE/ml): <100 KBE/ml
S.epidermidis [4]; 4 h after inoculation
  Ergebnis der Reisolierung (in KBE/ml): <100 KBE/ml
S.epidermidis [4]; 6 h after inoculation
  Ergebnis der Reisolierung (in KBE/ml): <100 KBE/ml
S.epidermidis [4]; 8 h after inoculation
  Ergebnis der Reisolierung (in KBE/ml): <100 KBE/ml
S.epidermidis [4]; 24 h after inoculation
  Ergebnis der Reisolierung (in KBE/ml): <100 KBE/ml
S.epidermidis [4]; 32 h after inoculation
  Ergebnis der Reisolierung (in KBE/ml): <100 KBE/ml
S.epidermidis [4]; 48 h after inoculation
  Ergebnis der Reisolierung (in KBE/ml): <100 KBE/ml
S.epidermidis [4]; 72 h after inoculation
  Ergebnis der Reisolierung (in KBE/ml): <100 KBE/ml
P.aeruginosa [5]; 2 h after inoculation
  Ergebnis der Reisolierung (in KBE/ml): <100 KBE/ml
P.aeruginosa [5]; 4 h after inoculation
  Ergebnis der Reisolierung (in KBE/ml): <100 KBE/ml
P.aeruginosa [5]; 6 h after inoculation
  Ergebnis der Reisolierung (in KBE/ml): <100 KBE/ml
P.aeruginosa [5]; 8 h after inoculation
  Ergebnis der Reisolierung (in KBE/ml): <100 KBE/ml
P.aeruginosa [5]; 24 h after inoculation
  Ergebnis der Reisolierung (in KBE/ml): <100 KBE/ml
P.aeruginosa [5]; 32 h after inoculation
  Ergebnis der Reisolierung (in KBE/ml): <100 KBE/ml
P.aeruginosa [5]; 48 h after inoculation
  Ergebnis der Reisolierung (in KBE/ml): <100 KBE/ml
P.aeruginosa [5]; 72 h after inoculation
  Ergebnis der Reisolierung (in KBE/ml): <100 KBE/ml
H.influenzae [6]; 2 h after inoculation
  Ergebnis der Reisolierung (in KBE/ml): <100 KBE/ml
H.influenzae [6]; 4 h after inoculation
  Ergebnis der Reisolierung (in KBE/ml): <100 KBE/ml
H.influenzae [6]; 6 h after inoculation
  Ergebnis der Reisolierung (in KBE/ml): <100 KBE/ml
H.influenzae [6]; 8 h after inoculation
  Ergebnis der Reisolierung (in KBE/ml): <100 KBE/ml
H.influenzae [6]; 24 h after inoculation
  Ergebnis der Reisolierung (in KBE/ml): <100 KBE/ml
H.influenzae [6]; 32 h after inoculation
  Ergebnis der Reisolierung (in KBE/ml): <100 KBE/ml
H.influenzae [6]; 48 h after inoculation
  Ergebnis der Reisolierung (in KBE/ml): <100 KBE/ml
H.influenzae [6]; 72 h after inoculation
  Ergebnis der Reisolierung (in KBE/ml): <100 KBE/ml
Sc. pneumoniae [7]; 2 h after inoculation
  Ergebnis der Reisolierung (in KBE/ml): <100 KBE/ml
Sc. pneumoniae [7]; 4 h after inoculation
  Ergebnis der Reisolierung (in KBE/ml): <100 KBE/ml
Sc. pneumoniae [7]; 6 h after inoculation
  Ergebnis der Reisolierung (in KBE/ml): <100 KBE/ml
Sc. pneumoniae [7]; 8 h after inoculation
  Ergebnis der Reisolierung (in KBE/ml): <100 KBE/ml
Sc. pneumoniae [7]; 24 h after inoculation
  Ergebnis der Reisolierung (in KBE/ml): <100 KBE/ml
Sc. pneumoniae [7]; 32 h after inoculation
  Ergebnis der Reisolierung (in KBE/ml): <100 KBE/ml
Sc. pneumoniae [7]; 48 h after inoculation
  Ergebnis der Reisolierung (in KBE/ml): <100 KBE/ml
Sc. pneumoniae [7]; 72 h after inoculation
  Ergebnis der Reisolierung (in KBE/ml): <100 KBE/ml
E.coli [8]; 2 h after inoculation
  Ergebnis der Reisolierung (in KBE/ml): <100 KBE/ml
E.coli [8]; 4 h after inoculation
  Ergebnis der Reisolierung (in KBE/ml): <100 KBE/ml
E.coli [8]; 6 h after inoculation
  Ergebnis der Reisolierung (in KBE/ml): <100 KBE/ml
E.coli [8]; 8 h after inoculation
  Ergebnis der Reisolierung (in KBE/ml): <100 KBE/ml
E.coli [8]; 24 h after inoculation
  Ergebnis der Reisolierung (in KBE/ml): <100 KBE/ml
E.coli [8]; 32 h after inoculation
  Ergebnis der Reisolierung (in KBE/ml): <100 KBE/ml
E.coli [8]; 48 h after inoculation
  Ergebnis der Reisolierung (in KBE/ml): <100 KBE/ml
E.coli [8]; 72 h after inoculation
  Ergebnis der Reisolierung (in KBE/ml): <100 KBE/ml
H.influenzae [9]; 2 h after inoculation
  Ergebnis der Reisolierung qualitiativ (+/-) nach Anreicherung: -
H.influenzae [9]; 4 h after inoculation
  Ergebnis der Reisolierung qualitiativ (+/-) nach Anreicherung: -
H.influenzae [9]; 6 h after inoculation
  Ergebnis der Reisolierung qualitiativ (+/-) nach Anreicherung: -
H.influenzae [9]; 8 h after inoculation
  Ergebnis der Reisolierung qualitiativ (+/-) nach Anreicherung: -
H.influenzae [9]; 24 h after inoculation
  Ergebnis der Reisolierung qualitiativ (+/-) nach Anreicherung: -
H.influenzae [9]; 32 h after inoculation
  Ergebnis der Reisolierung qualitiativ (+/-) nach Anreicherung: -
H.influenzae [9]; 48 h after inoculation
  Ergebnis der Reisolierung qualitiativ (+/-) nach Anreicherung: -
H.influenzae [9]; 72 h after inoculation
  Ergebnis der Reisolierung qualitiativ (+/-) nach Anreicherung: -
P.aeruginosa [10]; 2 h after inoculation
  Ergebnis der Reisolierung qualitiativ (+/-) nach Anreicherung: -
P.aeruginosa [10]; 4 h after inoculation
  Ergebnis der Reisolierung qualitiativ (+/-) nach Anreicherung: -
P.aeruginosa [10]; 6 h after inoculation
  Ergebnis der Reisolierung qualitiativ (+/-) nach Anreicherung: -
P.aeruginosa [10]; 8 h after inoculation
  Ergebnis der Reisolierung qualitiativ (+/-) nach Anreicherung: -
P.aeruginosa [10]; 24 h after inoculation
  Ergebnis der Reisolierung qualitiativ (+/-) nach Anreicherung: -
P.aeruginosa [10]; 32 h after inoculation
  Ergebnis der Reisolierung qualitiativ (+/-) nach Anreicherung: -
P.aeruginosa [10]; 48 h after inoculation
  Ergebnis der Reisolierung qualitiativ (+/-) nach Anreicherung: -
P.aeruginosa [10]; 72 h after inoculation
  Ergebnis der Reisolierung qualitiativ (+/-) nach Anreicherung: -
